Assay results from ChEMBL document CHEMBL1150429, “Synthesis and biological evaluation of D-amino acid oxidase inhibitors” (J Med Chem, 2008).
Calls of active or inactive are those of the source. The calls are words filed in the database; no cut-off is given here.

Tested on: Rattus norvegicus
Test: Increase in D-serine level in Sprague-Dawley rat prefrontal cortex at 30 mg/kg, po
Format: functional, organism-based
Set-up: dose 30 mg/kg

| Structure (SMILES) | Activity |
| --- | --- |
| Oc1noc2cc(Cl)ccc12 | inactive |

Tested on: Rattus norvegicus
Test: Increase in D-serine level in Sprague-Dawley rat prefrontal cortex at 30 mg/kg, po coadministered with D-serine
Format: functional

| Structure (SMILES) | Activity [%] |
| --- | --- |
| Oc1noc2cc(Cl)ccc12 | >60 |

Molecular target: D-amino-acid oxidase (Sus scrofa, UniProt P00371)
Sequence (P00371 whole entry): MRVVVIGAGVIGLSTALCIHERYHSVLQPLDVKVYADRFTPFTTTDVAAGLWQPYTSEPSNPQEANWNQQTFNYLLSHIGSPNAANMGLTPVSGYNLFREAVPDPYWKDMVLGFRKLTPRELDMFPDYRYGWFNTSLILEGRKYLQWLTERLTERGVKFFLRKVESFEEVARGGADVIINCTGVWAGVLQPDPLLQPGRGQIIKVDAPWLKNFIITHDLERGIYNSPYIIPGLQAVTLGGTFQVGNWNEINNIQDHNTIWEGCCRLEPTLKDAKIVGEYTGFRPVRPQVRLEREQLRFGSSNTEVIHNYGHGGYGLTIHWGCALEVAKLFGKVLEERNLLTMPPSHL
Test: Inhibition of pig D-amino acid oxidase

| Structure (SMILES) | IC50 [µM] |
| --- | --- |
| Oc1noc2c(F)cccc12 | 23 |
| Cc1cccc2c(O)noc12 | > 100 |
| COc1noc2cc(Cl)ccc12 | > 100 |
| Oc1noc2cccc(F)c12 | 7.82 |
| NCc1cc(=O)[nH]o1 [MUSCIMOL] | > 100 |
| Oc1noc2c(F)c(C(F)(F)F)ccc12 | > 100 |
| Cc1c(C[C@H](N)C(=O)O)o[nH]c1=O | > 100 |
| CCOc1ccc2c(O)noc2c1 | > 100 |
| O=c1[nH]oc2cccc(C(F)(F)F)c12 | > 100 |
| O=c1[nH]oc2ccc([N+](=O)[O-])cc12 | 2.95 |
| O=c1[nH]oc2cc(C(F)(F)F)ccc12 | 5 |

Molecules with a lower IC50, results first:

| IC50 [µM] | Structure (SMILES) |
| --- | --- |
| 0.599 | Oc1noc2ccc(Br)cc12 |
| 1.88 | Oc1noc2ccccc12 |
| 2.57 | COc1ccc2c(O)noc2c1 |
| 0.444 | Oc1noc2cc(F)ccc12 |
| 0.722 | O=[N+]([O-])c1ccc2c(O)noc2c1 |
| 0.188 | Oc1noc2cc(Cl)ccc12 |
| 0.269 | Cc1ccc2c(O)noc2c1 |
| 1.51 | Oc1noc2ccc(I)cc12 |

Tested on: Rattus norvegicus
Test: Increase in D-serine level in Sprague-Dawley rat plasma at 30 mg/kg, po coadministered with D-serine
Format: functional, organism-based
Set-up: dose 30 mg/kg

| Structure (SMILES) | Activity |
| --- | --- |
| Oc1noc2cc(Cl)ccc12 | Active |
